Where “and” joins values, the source holds several entries; their conditions need not be identical. Identical values can stand only once.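 Five compound concentrations were applied to cells in 96-well plates for 48 hours; endpoints were derived by simple linear interpolation of the resulting dose-response curve. Here, GI50 denotes the concentration required for 50% inhibition of growth. TGI denotes the concentration required for complete inhibition of growth.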
Assays:
Assay in all cases: growth of human tumour cells (NCI), 48 h
HCT-15 colon = tested on: HCT-15 colon
SW-620 colon = tested on: SW-620 colon
HOP-62 NSCLC = tested on: HOP-62 NSCLC
NCI-H522 lung = tested on: NCI-H522 lung
RXF 393 renal = tested on: RXF 393 renal
MCF7 breast = tested on: MCF7 breast
HL-60(TB) leukemia = tested on: HL-60(TB) leukemia
786-0 renal = tested on: 786-0 renal
CAKI-1 renal = tested on: CAKI-1 renal
HS 578T breast = tested on: HS 578T breast
TK-10 renal = tested on: TK-10 renal
DU-145 prostate = tested on: DU-145 prostate
UACC-62 melanoma = tested on: UACC-62 melanoma
EKVX NSCLC = tested on: EKVX NSCLC
OVCAR-5 ovarian = tested on: OVCAR-5 ovarian
SN12C renal = tested on: SN12C renal
MALME-3M melanoma = tested on: MALME-3M melanoma
OVCAR-8 ovarian = tested on: OVCAR-8 ovarian
K-562 leukemia = tested on: K-562 leukemia
SNB-75 CNS = tested on: SNB-75 CNS
SK-MEL-2 melanoma = tested on: SK-MEL-2 melanoma
RPMI-8226 leukemia = tested on: RPMI-8226 leukemia
BT-549 breast = tested on: BT-549 breast
SF-268 CNS = tested on: SF-268 CNS
LOX IMVI melanoma = tested on: LOX IMVI melanoma
MOLT-4 leukemia = tested on: MOLT-4 leukemia
CCRF-CEM leukemia = tested on: CCRF-CEM leukemia
OVCAR-4 ovarian = tested on: OVCAR-4 ovarian
NCI/ADR-RES ovarian = tested on: NCI/ADR-RES ovarian
COLO 205 colon = tested on: COLO 205 colon
SR leukemia = tested on: SR leukemia
U251 CNS = tested on: U251 CNS
HT29 colon = tested on: HT29 colon
A549 NSCLC = tested on: A549 NSCLC
IGROV1 ovarian = tested on: IGROV1 ovarian
SNB-19 CNS = tested on: SNB-19 CNS
HOP-92 NSCLC = tested on: HOP-92 NSCLC
NCI-H226 lung = tested on: NCI-H226 lung
SF-539 CNS = tested on: SF-539 CNS
OVCAR-3 ovarian = tested on: OVCAR-3 ovarian
SK-MEL-5 melanoma = tested on: SK-MEL-5 melanoma
PC-3 prostate = tested on: PC-3 prostate
UO-31 renal = tested on: UO-31 renal
A498 renal = tested on: A498 renal
HCT-116 colon = tested on: HCT-116 colon
MDA-MB-231 breast = tested on: MDA-MB-231 breast
M14 melanoma = tested on: M14 melanoma
NCI-H460 lung = tested on: NCI-H460 lung
MDA-MB-435 = tested on: MDA-MB-435
SF-295 CNS = tested on: SF-295 CNS
KM12 colon = tested on: KM12 colon
T-47D breast = tested on: T-47D breast
SK-MEL-28 melanoma = tested on: SK-MEL-28 melanoma
UACC-257 melanoma = tested on: UACC-257 melanoma
ACHN renal = tested on: ACHN renal
SK-OV-3 ovarian = tested on: SK-OV-3 ovarian
NCI-H23 lung = tested on: NCI-H23 lung
HCC-2998 colon = tested on: HCC-2998 colon

With `CC(C)n1c(/C=C/[C@@H](O)C[C@@H](O)CC(=O)O)c(-c2ccc(F)cc2)c2ccccc21` the GI50 (HCT-15 colon) was 3.04 µM and 1.66 µM, the TGI (HCT-15 colon) was greater than 100 µM and the GI50 (SW-620 colon) was 3.76 µM and 5.15 µM. The TGI (SW-620 colon) was greater than 100 µM, the GI50 (HOP-62 NSCLC) was 11.4 µM and 13 µM and the TGI (HOP-62 NSCLC) was greater than 100 µM. The GI50 (NCI-H522 lung) was 0.995 µM and 0.999 µM, the TGI (NCI-H522 lung) was greater than 100 µM and the GI50 (RXF 393 renal) was 3.54 µM and 2.12 µM. The TGI (RXF 393 renal) was > 100 µM and 18.9 µM, the GI50 (MCF7 breast) was 20.7 µM and 16.6 µM and the TGI (MCF7 breast) was greater than 100 µM. The GI50 (HL-60(TB) leukemia) was 14.5 µM and 10.9 µM, the TGI (HL-60(TB) leukemia) was 55.2 µM and > 100 µM and the GI50 (786-0 renal) was 4.71 µM and 5.31 µM. For the same molecule, the TGI (786-0 renal) was greater than 100 µM, the GI50 (CAKI-1 renal) was 0.594 µM and 0.542 µM and the TGI (CAKI-1 renal) was 2.99 µM and 2.69 µM. The GI50 (HS 578T breast) was 4.29 µM and 4.73 µM, the TGI (HS 578T breast) was greater than 100 µM and the GI50 (TK-10 renal) was 33.7 µM and 7.85 µM. The TGI (TK-10 renal) was greater than 100 µM, the GI50 (DU-145 prostate) was 24.8 µM and 26.4 µM and the TGI (DU-145 prostate) was greater than 100 µM. For the same molecule, the GI50 (UACC-62 melanoma) was 0.526 µM and 0.537 µM, the TGI (UACC-62 melanoma) was 34.4 µM and 25 µM and the GI50 (EKVX NSCLC) was 16.8 µM. The TGI (EKVX NSCLC) was greater than 100 µM, the GI50 (OVCAR-5 ovarian) was 18.5 µM and 26.6 µM and the TGI (OVCAR-5 ovarian) was greater than 100 µM. For the same molecule, the GI50 (SN12C renal) was 0.7 µM and 0.598 µM, the TGI (SN12C renal) was greater than 100 µM and the GI50 (MALME-3M melanoma) was 26.7 µM and 27.4 µM. For the same molecule, the TGI (MALME-3M melanoma) was greater than 100 µM, the GI50 (OVCAR-8 ovarian) was 1.32 µM and 0.842 µM and the TGI (OVCAR-8 ovarian) was greater than 100 µM. For the same molecule, the GI50 (K-562 leukemia) was 5.94 µM and 6.56 µM, the TGI (K-562 leukemia) was greater than 100 µM and the GI50 (SNB-75 CNS) was 1.43 µM and 0.859 µM. The TGI (SNB-75 CNS) was greater than 100 µM, the GI50 (SK-MEL-2 melanoma) was 1.51 µM and 0.983 µM and the TGI (SK-MEL-2 melanoma) was 30.9 µM and 22.3 µM. The GI50 (RPMI-8226 leukemia) was 5.55 µM and 10.3 µM, the TGI (RPMI-8226 leukemia) was greater than 100 µM and the GI50 (BT-549 breast) was 5.8 µM and 4.63 µM. The TGI (BT-549 breast) was greater than 77.6 µM, the GI50 (SF-268 CNS) was 0.666 µM and 0.818 µM and the TGI (SF-268 CNS) was greater than 100 µM. For the same molecule, the GI50 (LOX IMVI melanoma) was 0.465 µM and 0.653 µM, the TGI (LOX IMVI melanoma) was > 40.1 µM and 5.62 µM and the GI50 (MOLT-4 leukemia) was 16.4 µM and 21.9 µM. For the same molecule, the TGI (MOLT-4 leukemia) was 67.5 µM and > 100 µM, the GI50 (CCRF-CEM leukemia) was 13.8 µM and 13.4 µM and the TGI (CCRF-CEM leukemia) was greater than 100 µM. The GI50 (OVCAR-4 ovarian) was 10.4 µM and 12.9 µM, the TGI (OVCAR-4 ovarian) was greater than 100 µM and the GI50 (NCI/ADR-RES ovarian) was 0.554 µM and 0.845 µM. The TGI (NCI/ADR-RES ovarian) was greater than 100 µM, the GI50 (COLO 205 colon) was 4.44 µM and 6.2 µM and the TGI (COLO 205 colon) was 15.3 µM and > 65.1 µM. The GI50 (SR leukemia) was 2.16 µM and 2.8 µM, the TGI (SR leukemia) was greater than 61.7 µM and the GI50 (U251 CNS) was 0.455 µM and 0.558 µM. The TGI (U251 CNS) was greater than 100 µM, the GI50 (HT29 colon) was 12.8 µM and 15.6 µM and the TGI (HT29 colon) was greater than 100 µM. For the same molecule, the GI50 (A549 NSCLC) was 5.93 µM and 6.99 µM, the TGI (A549 NSCLC) was greater than 100 µM and the GI50 (IGROV1 ovarian) was 2.99 µM and 2.68 µM. The TGI (IGROV1 ovarian) was greater than 100 µM, the GI50 (SNB-19 CNS) was 4.23 µM and 1.32 µM and the TGI (SNB-19 CNS) was greater than 100 µM. For the same molecule, the GI50 (HOP-92 NSCLC) was 0.0329 µM and 0.0368 µM, the TGI (HOP-92 NSCLC) was 0.282 µM and 0.183 µM and the GI50 (NCI-H226 lung) was 2.89 µM and 3.71 µM. The TGI (NCI-H226 lung) was greater than 100 µM, the GI50 (SF-539 CNS) was 25.7 µM and 10.5 µM and the TGI (SF-539 CNS) was greater than 100 µM. For the same molecule, the GI50 (OVCAR-3 ovarian) was 12.2 µM and 15 µM, the TGI (OVCAR-3 ovarian) was 46.7 µM and > 100 µM and the GI50 (SK-MEL-5 melanoma) was 3.94 µM and 4.9 µM. For the same molecule, the TGI (SK-MEL-5 melanoma) was 35.4 µM and 27 µM, the GI50 (PC-3 prostate) was 0.371 µM and 0.65 µM and the TGI (PC-3 prostate) was greater than 100 µM. For the same molecule, the GI50 (UO-31 renal) was 4.91 µM and 3.26 µM, the TGI (UO-31 renal) was greater than 100 µM and the GI50 (A498 renal) was 0.164 µM and 0.219 µM. For the same molecule, the TGI (A498 renal) was 0.527 µM and 0.848 µM, the GI50 (HCT-116 colon) was 1.12 µM and 1.56 µM and the TGI (HCT-116 colon) was 11.1 µM and > 100 µM. For the same molecule, the GI50 (MDA-MB-231 breast) was 0.219 µM, the TGI (MDA-MB-231 breast) was 0.535 µM and the GI50 (M14 melanoma) was 19.4 µM and 11.9 µM. The TGI (M14 melanoma) was greater than 100 µM, the GI50 (NCI-H460 lung) was 3.91 µM and 4.98 µM and the TGI (NCI-H460 lung) was greater than 100 µM. For the same molecule, the GI50 (MDA-MB-435) was 10.5 µM and 14.4 µM, the TGI (MDA-MB-435) was greater than 100 µM and the GI50 (SF-295 CNS) was 0.361 µM and 0.429 µM. The GI50 (KM12 colon) was 16.6 µM and 21.9 µM, the TGI (KM12 colon) was greater than 100 µM and the GI50 (T-47D breast) was 14.2 µM and 13.8 µM. The TGI (T-47D breast) was greater than 100 µM, the GI50 (SK-MEL-28 melanoma) was 12.2 µM and 15.4 µM and the TGI (SK-MEL-28 melanoma) was 53.9 µM and > 86.3 µM. The GI50 (UACC-257 melanoma) was 52.7 µM and 47.5 µM, the TGI (UACC-257 melanoma) was greater than 100 µM and the GI50 (ACHN renal) was 0.725 µM and 0.558 µM. The TGI (ACHN renal) was greater than 100 µM, the GI50 (SK-OV-3 ovarian) was 19.8 µM and > 51.3 µM and the TGI (SK-OV-3 ovarian) was greater than 100 µM. For the same molecule, the GI50 (NCI-H23 lung) was 3.29 µM and 3.86 µM, the TGI (NCI-H23 lung) was greater than 100 µM and the GI50 (HCC-2998 colon) was 10.4 µM and 28.4 µM. For the same molecule, the TGI (HCC-2998 colon) was greater than 100 µM.
